Laboratory results reported in patent US20160359116A1, “Organic Semiconductor Formulations” (SMARTKEM LIMITED, priority 2012, published 2016).

Assay: Solubility of the OSC small molecule and binder in aromatic hydrocarbon and further solvents
Assay type: physicochemical
From the text: The aromatic hydrocarbon solvent of the multi-solvent formulation is capable of dissolving at least 0.5% by weight of the polycrystalline small molecule of the present invention, more preferably greater than 1%.
The further (subsidiary) solvent(s) are preferably less solubilising of the polycrystalline small molecule and typically dissolve less than 0.2% by weight of the small molecule OSC, more preferably less than 0.1% by weight, more preferably less than 0.05% by weight.
Preferably, the semiconducting binder of the invention is essentially insoluble in the further solvent.

In the case of CC[Si](C#Cc1c2cc3c(C)ccc(C)c3cc2c(C#C[Si](CC)(CC)CC)c2cc3c(C)ccc(C)c3cc12)(CC)CC [1,4,8,11-tetramethyl, 6,13-bis-(triethylsilylethynyl)pentacene], the Solubility (in 2-Bromomesitylene) is reported as 1.4% w/v, the Solubility (in Bromobenzene) is reported as 3.5% w/v and the Solubility (in Cyclohexane) is reported as under 0.1%. For the same molecule, the Solubility (in Mesitylene) was about 1% w/v, the Solubility (in Methyl ethyl ketone (MEK)) was “Insol” and the Solubility (in Propan-2-ol) was “Insol”. It also gave a Solubility (in Tetralin) of 0.6% w/v, a Solubility (in n-Heptane) of under 0.1% and a Solubility (in n-Octane) of under 0.1%.
